pKi: −log10 of the molar value.

Assay [1] concerns the target T1, Human A2a Adenosine Receptor (Homo sapiens, UniProt P29274).
T1 construct: purchased Receptor Biology, Inc., Beltsville, Md; RB-HA2a
Briefly: Human adenosine A2a receptor competition binding assay. As to conditions: [3H]-SCH 58261 displacement, human A2a membranes. Here is the method:
(§1) Human Adenosine A2a and A1 Receitor Competition Binding Assay Protocol Membrane Sources:
A2a: Human A2a Adenosine Receptor membranes, Catalog #RB-HA2a, Receptor Biology, Inc., Beltsville, Md. Dilute to 17 μg/100 μl in membrane dilution buffer (see below).
(§2) Membrane dilution buffer: Dulbecco's Phosphate Buffered Saline (Gibco/BRL)+10 mM MgCl2.
(§3) Compound Dilution Buffer: Dulbecco's Phosphate Buffered Saline (Gibco/BRL)+10 mM MgCl2 supplemented with 1.6 mg/ml methyl cellulose and 16% DMSO. Prepared fresh daily.
A2a: [3H]-SCH 58261, custom synthesis, AmershamPharmacia Biotech, Piscataway, N.J. Stock is prepared at 1 nM in membrane dilution buffer. Final assay concentration is 0.5 nM.
A2a: To determine non-specific binding, add 100 nM CGS 15923 (RBI, Natick, Mass.). Working stock is prepared at 400 nM in compound dilution buffer.
(§4) Prepare 1 mM stock solutions of compounds in 100% DMSO. Dilute in compound dilution buffer. Test at 10 concentrations ranging from 3 μM to 30 pM. Prepare working solutions at 4× final concentration in compound dilution buffer.
Perform assays in deep well 96 well plates. Total assay volume is 200 μl. Add 50 μl compound dilution buffer (total ligand binding) or 50 μl CGS 15923 working solution (A2a non-specific binding) or 50 μl NECA working solution (A1 non-specific binding) or 50 μl of drug working solution. Add 50 μl ligand stock ([3H]-SCH 58261 for A2a, [3H]-DPCPX for A1). […]

The next assay concerns the target T2, A1 receptor (Homo sapiens, UniProt P30542).
T2 sequence (P30542 1-326): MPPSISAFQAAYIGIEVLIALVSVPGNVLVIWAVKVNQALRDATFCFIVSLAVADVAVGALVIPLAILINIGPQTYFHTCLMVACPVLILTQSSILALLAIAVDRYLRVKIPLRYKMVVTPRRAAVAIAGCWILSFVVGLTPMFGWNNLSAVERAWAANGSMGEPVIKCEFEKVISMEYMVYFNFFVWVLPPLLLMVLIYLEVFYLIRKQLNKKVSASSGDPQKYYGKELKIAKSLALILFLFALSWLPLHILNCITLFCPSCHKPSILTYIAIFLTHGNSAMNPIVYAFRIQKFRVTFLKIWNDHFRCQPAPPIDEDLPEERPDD
Briefly: Human adenosine A1 receptor competition binding assay (for selectivity). The settings on record: A1/A2a Ki ratio. Here is the method:
as §1, §2, §3
A1: [3H]-DPCPX, Amersham Pharmacia Biotech, Piscataway, N.J. Stock is prepared at 2 nM in membrane dilution buffer. Final assay concentration is 1 nM.
A1: To determine non-specific binding, add 100 μM NECA (RBI, Natick, Mass.). Working stock is prepared at 400 μM in compound dilution buffer.
as §4
Perform assays in deep well 96 well plates. Total assay volume is 200 μl. Add 50 μl compound dilution buffer (total ligand binding) or 50 μl CGS 15923 working solution (A2a non-specific binding) or 50 μl NECA working solution (A1 non-specific binding) or 50 μl of drug working solution. Add 50 μl ligand stock ([3H]-SCH 58261 for A2a, [3H]-DPCPX for A1). Add 100 μl of diluted membranes containing the appropriate receptor. Mix. Incubate at room temperature for 90 minutes. […]
Selectivity is determined by dividing Ki for A1 receptor by Ki for A2a receptor. […]

T1 sequence (P29274 whole entry): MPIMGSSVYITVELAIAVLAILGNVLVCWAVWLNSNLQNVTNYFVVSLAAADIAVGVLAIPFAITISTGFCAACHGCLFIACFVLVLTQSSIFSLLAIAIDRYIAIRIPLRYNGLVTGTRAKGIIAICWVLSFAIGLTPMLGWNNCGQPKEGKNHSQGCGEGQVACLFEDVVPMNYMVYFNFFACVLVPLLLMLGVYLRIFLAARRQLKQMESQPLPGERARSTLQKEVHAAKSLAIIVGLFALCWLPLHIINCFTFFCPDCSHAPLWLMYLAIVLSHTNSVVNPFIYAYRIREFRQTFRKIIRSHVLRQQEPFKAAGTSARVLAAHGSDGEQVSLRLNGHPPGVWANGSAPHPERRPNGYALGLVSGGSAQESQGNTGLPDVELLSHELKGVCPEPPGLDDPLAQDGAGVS

Take `Cc1nc(-c2ccc(F)c(N3CCN(CCn4ncc5c4nc(N)n4nc(-c6cnccn6)nc54)CC3)c2)co1` [Example 1]: the pKi in assay [1] is 9.70.
On to `Cc1nccnc1-c1nc2c3cnn(CCN4CCN(c5cc(-c6ncco6)ccc5F)CC4)c3nc(N)n2n1` [Example 2-28], for which the “selectivity (Ki for A1 receptor divided by Ki for A2a receptor)” value at A1 receptor is listed as “above 9000”.

As a reminder, the pKi is −log10 of the Ki, conventionally taken in molar units.

(Values after patent US7465740B2, “2-heteroaryl-pyrazolo-[4,3-e]-1,2,4-triazolo-[1,5-c]-pyrimidine adenosine A2a receptor antagonists” (Schering Corporation, priority 2005, dated 2008).)
